Laboratory results published in patent publication US8003649B2 (AstraZeneca AB, priority 2007, dated 2011).

Each compound was assayed against T1, Androgen Receptor (AR) (Homo sapiens, UniProt P10275, T878A) (assay: LNCaP Androgen Receptor Down-regulation Cell Assay (immunofluorescence end point)). Details: LNCaP prostate carcinoma cells, compound incubation 20-22 hours, 50% reduction of the AR signal; read-out: Androgen Receptor Down-regulation Assay (a) IC50/μM.
T1 construct: cell based immuno-fluorescence assay using the LNCaP prostate epithelial cell line; endogenous in cells; host or cells: LNCaP clone FGC (ATCC CRL-1740)
T1 sequence (P10275 1-920 T878A): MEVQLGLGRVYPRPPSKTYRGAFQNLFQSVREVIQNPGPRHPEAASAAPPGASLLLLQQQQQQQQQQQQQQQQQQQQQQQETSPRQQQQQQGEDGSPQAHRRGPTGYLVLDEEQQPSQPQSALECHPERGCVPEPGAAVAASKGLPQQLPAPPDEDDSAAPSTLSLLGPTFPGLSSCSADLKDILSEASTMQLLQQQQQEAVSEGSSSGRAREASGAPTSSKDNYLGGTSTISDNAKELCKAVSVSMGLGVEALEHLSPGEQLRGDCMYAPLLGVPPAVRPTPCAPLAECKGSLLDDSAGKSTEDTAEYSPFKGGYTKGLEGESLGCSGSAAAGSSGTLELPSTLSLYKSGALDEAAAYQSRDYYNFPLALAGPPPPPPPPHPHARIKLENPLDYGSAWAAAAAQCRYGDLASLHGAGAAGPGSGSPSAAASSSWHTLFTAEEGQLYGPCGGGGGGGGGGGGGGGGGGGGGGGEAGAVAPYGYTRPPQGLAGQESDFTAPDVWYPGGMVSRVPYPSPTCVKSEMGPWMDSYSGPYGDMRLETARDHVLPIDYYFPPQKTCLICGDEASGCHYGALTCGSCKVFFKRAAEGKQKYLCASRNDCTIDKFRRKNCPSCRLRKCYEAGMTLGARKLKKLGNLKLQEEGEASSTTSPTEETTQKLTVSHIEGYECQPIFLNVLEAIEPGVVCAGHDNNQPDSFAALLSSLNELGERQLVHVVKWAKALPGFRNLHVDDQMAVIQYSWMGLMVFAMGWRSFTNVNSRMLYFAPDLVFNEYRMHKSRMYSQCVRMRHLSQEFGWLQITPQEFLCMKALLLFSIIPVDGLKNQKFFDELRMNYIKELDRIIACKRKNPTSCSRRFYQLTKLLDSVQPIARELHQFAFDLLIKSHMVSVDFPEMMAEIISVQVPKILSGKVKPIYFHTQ
Type: cell-based
Summary of the method: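 AR loss reported as IC50 from curve fits of fluorescence dose-response data, with AR immunostained and read by laser-scanning cytometry. Compound exposure was 20-22 h at 37° C in LNCaP cells grown in 5% charcoal-stripped FBS and plated overnight beforehand.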

`FC(F)(F)c1nnc2ccc(N3CCC(c4ccc(OCCCN5CCNCC5)cc4)CC3)nn12` [Example 728, 6-[4-[4-(3-piperazin-1-ylpropoxy)phenyl]piperidin-1-yl]-3-(trifluoromethyl)[1,2,4]triazolo[4,3-b]pyridazine] and `CN1CCN(CCCOc2ccc(C3CCN(c4ccc5nnc(C(F)(F)F)n5n4)CC3)cc2)CC1` [Example 732] are within 1.5-fold of each other in DC50: 1.5 µM for the first, 1.1 µM for the second.

Compared with `Cc1cc(COc2ccc(C3CCN(c4ccc5nnc(C(F)(F)F)n5n4)CC3)cc2)no1` [Example 729], `FC(F)(F)c1nnc2ccc(N3CCC(c4ccc(OCc5ccon5)cc4)CC3)nn12` [Example 733] is 1.5-fold lower in DC50: 0.92 µM for the first, 0.6 µM for the second.

Going from `CN(C)CCOc1ccc(C2CCN(c3ccc4nnc(C(F)(F)F)n4n3)CC2)cc1` [Example 730] to `CN1CCN(CCOc2ccc(C3CCN(c4ccc5nnc(C(F)(F)F)n5n4)CC3)cc2)CC1` [Example 735], the DC50 rises from 0.72 µM to 1.9 µM (2.6-fold).

First: FC(F)(F)c1nnc2ccc(N3CCC(c4ccc(OCCN5CCOCC5)cc4)CC3)nn12 [Example 731]
Second: CN(CCN1CCOCC1)C(=O)c1ccc(C2CCN(c3ccc4nnc(C(F)(F)F)n4n3)CC2)cc1 [Example 754, N-methyl-N-(2-morpholin-4-ylethyl)-4-[1-[3-(trifluoromethyl)[1,2,4]triazolo[4,3-b]pyridazin-6-yl]piperidin-4-yl]benzamide]
The DC50 of the first is 2.3-fold lower: 1.1 µM for the first, 2.5 µM for the second.

Going from `FC(F)(F)c1nnc2ccc(N3CCC(c4ccc(OCc5cnco5)cc4)CC3)nn12` [Example 734] to `Cn1nccc1COc1ccc(C2CCN(c3ccc4nnc(C(F)(F)F)n4n3)CC2)cc1` [Example 736], the DC50 falls from 2.5 µM to 0.4 µM (6.2-fold).

Going from `OCCOc1cccc(C2CCN(c3ccc4nnc(C(F)(F)F)n4n3)CC2)c1` [Example 737, 2-[3-[1-[3-(trifluoromethyl)[1,2,4]triazolo[4,3-b]pyridazin-6-yl]piperidin-4-yl]phenoxy]ethanol] to `CN(CCS(C)(=O)=O)C(=O)c1ccc(C2CCN(c3ccc4nnc(C(F)(F)F)n4n3)CC2)cc1` [Example 741], the DC50 rises from 0.74 µM to 2.2 µM (3-fold).

`O=C(c1ccc(C2CCN(c3ccc4nnc(C(F)(F)F)n4n3)CC2)cc1)N1CC[C@@H](O)C1` [Example 738] and `O=C(c1ccc(C2CCN(c3ccc4nnc(C(F)(F)F)n4n3)CC2)cc1)N1CC[C@H](O)C1` [Example 739] are within 1.5-fold of each other in DC50: 3.3 µM for the first, 3.2 µM for the second.

Going from `O=C(c1ccc(C2CCN(c3ccc4nnc(C(F)(F)F)n4n3)CC2)cc1)N1CCC(O)CC1` [Example 740] to `O=C(c1ccc(N2CCN(c3ccc4nnc(C(F)(F)F)n4n3)CC2)cc1)N1CC[C@@H](O)C1` [Example 747], the DC50 rises from 2 µM to 23 µM (12-fold).

Going from `CN1CCN(C(=O)c2ccc(N3CCN(c4ccc5nnc(C(F)(F)F)n5n4)CC3)cc2)CC1` [Example 744] to `O=C(c1ccc(N2CCN(c3ccc4nnc(C(F)(F)F)n4n3)CC2)cc1)N1CCCC1` [Example 748], the DC50 falls from 9.6 µM to 5.6 µM (1.7-fold).

First: COCCNC(=O)c1ccc(N2CCN(c3ccc4nnc(C(F)(F)F)n4n3)CC2)cc1 [Example 745]
Second: COCCN(C)C(=O)c1ccc(N2CCN(c3ccc4nnc(C(F)(F)F)n4n3)CC2)cc1 [Example 751]
The DC50 of the first is 1.9-fold lower: 3.4 µM for the first, 6.3 µM for the second.

First: CN(C)C(=O)c1ccc(N2CCN(c3ccc4nnc(C(F)(F)F)n4n3)CC2)cc1 [Example 746]
Second: O=C(c1ccc(N2CCN(c3ccc4nnc(C(F)(F)F)n4n3)CC2)cc1)N1CCOCC1 [Example 749]
The DC50 of the first is lower: 3.3 µM for the first, over 22 µM for the second.

`O=C(NCCN1CCOCC1)c1ccc(N2CCN(c3ccc4nnc(C(F)(F)F)n4n3)CC2)cc1` [Example 750] and `FC(F)(F)c1nnc2ccc(N3CCN(c4ccc(OCCN5CCCC5)cc4)CC3)nn12` [Example 755] are within 1.5-fold of each other in DC50: 2.6 µM for the first, 2.2 µM for the second.

Going from `CN(CCN1CCCC1=O)C(=O)c1ccc(C2CCN(c3ccc4nnc(C(F)(F)F)n4n3)CC2)cc1` [Example 753, N-methyl-N-[2-(2-oxopyrrolidin-1-yl)ethyl]-4-[1-[3-(trifluoromethyl)[1,2,4]triazolo[4,3-b]pyridazin-6-yl]piperidin-4-yl]benzamide] to `CS(=O)(=O)c1ccc(F)cc1CN1CCN(c2ccc3nnc(C(F)(F)F)n3n2)CC1` [Example 765], the DC50 rises from 2.1 µM to 8.8 µM (4.2-fold).

Compared with `FC(F)(F)c1nnc2ccc(N3CCN(c4ccc(OCc5ccon5)cc4)CC3)nn12` [Example 757], `Cc1ccc(CN2CCN(c3ccc4nnc(C(F)(F)F)n4n3)CC2)cn1` [Example 776] is lower in DC50: over 12 µM for the first, 6.9 µM for the second.

`Fc1cc(Cl)cc(CN2CCN(c3ccc4nnc(C(F)(F)F)n4n3)CC2)c1` [Example 759] and `Fc1cc(CN2CCN(c3ccc4nnc(C(F)(F)F)n4n3)CC2)cc(C(F)(F)F)c1` [Example 760] cannot be ordered by DC50: 3.9 µM for the first, over 3.1 µM for the second.

Going from `Fc1cccc(CN2CCN(c3ccc4nnc(C(F)(F)F)n4n3)CC2)c1C(F)(F)F` [Example 761] to `Fc1cccc(CN2CCN(c3ccc4nnc(C(F)(F)F)n4n3)CC2)c1Cl` [Example 768], the DC50 rises from 1.5 µM to 4.7 µM (3.1-fold).

`Fc1cc(F)c(F)c(CN2CCN(c3ccc4nnc(C(F)(F)F)n4n3)CC2)c1` [Example 763] and `Fc1cc(CN2CCN(c3ccc4nnc(C(F)(F)F)n4n3)CC2)cc(F)c1F` [Example 767] cannot be ordered by DC50: over 9.8 µM for the first, over 12 µM for the second.

Compared with `Fc1ccc(F)c(CN2CCN(c3ccc4nnc(C(F)(F)F)n4n3)CC2)c1F` [Example 764], `Fc1ccc(CN2CCN(c3ccc4nnc(C(F)(F)F)n4n3)CC2)c(F)c1F` [Example 766] is higher in DC50: 2.5 µM for the first, over 17 µM for the second.

`FC(F)(F)c1nnc2ccc(N3CCN(Cc4cncc(Cl)c4)CC3)nn12` [Example 770] and `FC(F)(F)c1nnc2ccc(N3CCN(Cc4cncc(Br)c4)CC3)nn12` [Example 774] are within 1.5-fold of each other in DC50: 6.3 µM for the first, 8 µM for the second.

`COc1ncccc1CN1CCN(c2ccc3nnc(C(F)(F)F)n3n2)CC1` [Example 775] and `FC(F)(F)c1ncccc1CN1CCN(c2ccc3nnc(C(F)(F)F)n3n2)CC1` [Example 777] are within 1.5-fold of each other in DC50: 6.8 µM for the first, 4.6 µM for the second.

Compared with `CS(=O)(=O)c1cc(F)cc(CN2CCN(c3ccc4nnc(C(F)(F)F)n4n3)CC2)c1` [Example 778, 6-[4-[3-fluoro-5-(methylsulfonyl)benzyl]piperazin-1-yl]-3-(trifluoromethyl)[1,2,4]triazolo[4,3-b]pyridazine], `Fc1ccc(C(F)F)c(CN2CCN(c3ccc4nnc(C(F)(F)F)n4n3)CC2)c1` [Example 779, 6-[4-[2-(difluoromethyl)-5-fluorobenzyl]piperazin-1-yl]-3-(trifluoromethyl)[1,2,4]triazolo[4,3-b]pyridazine] is 4.8-fold lower in DC50: 2.6 µM for the first, 0.54 µM for the second.

Going from `Fc1ccc(C(F)F)c(CN2CCN(c3ccc4nnc(C(F)F)n4n3)CC2)c1` [Example 780, 3-(difluoromethyl)-6-[4-[2-(difluoromethyl)-5-fluorobenzyl]piperazin-1-yl][1,2,4]triazolo[4,3-b]pyridazine] to `Fc1cccc(CN2CCN(c3ccc4nnc(C(F)F)n4n3)CC2)c1C(F)F` [Example 782, 3-(difluoromethyl)-6-[4-[2-(difluoromethyl)-3-fluorobenzyl]piperazin-1-yl][1,2,4]triazolo[4,3-b]pyridazine], the DC50 rises from 0.51 µM to 2 µM (3.9-fold).

Work on `Fc1cccc(CN2CCN(c3ccc4nnc(C(F)(F)F)n4n3)CC2)c1C(F)F` [Example 781, 6-[4-[2-(difluoromethyl)-3-fluorobenzyl]piperazin-1-yl]-3-(trifluoromethyl)[1,2,4]triazolo[4,3-b]pyridazine] yielded a DC50 of 0.82 µM.
